Source: article PMC4376724, “Differential Phenotypic and Functional Profiles of TcCA-2 -Specific Cytotoxic CD8^+ T Cells in the Asymptomatic versus Cardiac Phase in Chagasic Patients” (PLoS ONE, 2015)

Tested on: PBMC from HLA-A*02:01 Chagas disease patients and healthy donors
Assay: Cytokine secretion test (Bio-Plex multiplex immunoassay) in PBMC supernatants
Assay type: cell-based, human
Settings: 1 μM peptide, 30 h; for IFNγ / IL6 / TNFα: non-peptide control subtracted
Procedure: For the screening of the recognition of TcCA-2 epitopes by Chagas disease patients, 10 HLA-A*02:01 adult patients in the asymptomatic phase of the disease (IND) were enrolled. For cytotoxicity, functional activity determinations and phenotypic characterization another group of 19 HLA-A*02:01 adults Chagas disease patients and 9 healthy donors were analyzed. These patients were at the chronic stage of the disease and were considered to be at the asymptomatic phase (IND, n = 8) if there was no evidence of having cardiac or gastrointestinal disorders. Chronic Chagas cardiomyopathy patients (CCC, n = 11) were stratified into G1 to G3 stages following Kuschnir classification according to clinical criteria and radiological, electrocardiographic and echocardiography analyses. The number of patients was the one recommended by the Hospital Ethical Committee. […] The patients were enrolled in both studies (functional and phenotypic characterization, IND n = 6 and CCC n = 7) when the available number of purified PBMC (limited by the cellular number isolated from each subject) was enough for both analyses. Another four CCC patients had to be enrolled to perform the phenotypic analysis in order to reach statistical significance.
Cytokine secretion (IL-4, IL-10, IL-6, IFN-γ, TNF-α) was determined in the supernatants of PBMC from Chagas disease patients and healthy donors, after in vitro stimulation with 1 μM of each peptide for 30 h at 37°C in RPMI supplemented with 10% iFBS as explained before. The secretion profile was determined by using a bead-based multiplex immunoassay system (Bio-Plex, Bio-Rad), following the manufacturer's instructions. The response was considered positive if an increase in the secretion of cytokines was at least three folds higher than the secretion by un-stimulated cells (basal secretion level) and at least, 4 pg/mL for IL-4, 2 pg/mL for IL-10, 15 pg/mL for IL-6 and 5 pg/mL for IFN-γ and TNF-α. The positive control consisted of 50 ng/mL Phorbol 12 myristate 13-acetate (PMA) and 500 ng/mL ionomycin (Sigma). Cytokine levels were quantified in each sample by using the Bio-Plex Manager software 4.1 (Bio-Rad).
Functional analysis of the epitope-specific CD8^+ T cells was carried out by the determination of the secretion profile of IFN-γ, TNF-α, IL-4, IL10 and IL-6 cytokines. […] CD8^+ T cells from 2 out of 11 patients responded to stimulation with peptide TcCA-2_273-281 by secreting IL-6. […] There was no secretion of IL-4 and IL-10 in PBMC after stimulation with any one of the four TcCA-2 peptides (data not shown). IFN-γ, TNF-α and IL6 cytokines secretion levels were higher in patients at the asymptomatic phase of the disease than in Chagas patients with associated cardiomyopathy.

Sequence: TVFDASRSTV [TcCA-2_442-451]
- Patients whose cells recognized the peptide by secreting IFN-γ, TNF-α and IL-6 (PBMC of Chagas patients, positive = at least three folds non-peptide control and ≥15 pg/mL IL-6, ≥5 pg/mL IFN-γ and TNF-α): 2 out of 14
- Patients whose cells recognized the peptide by secreting TNF-α and IL-6 (PBMC of Chagas patients, same positivity criteria): 2 out of 14
- IFNγ (PBMC of patient CCC I 456): 4 pg/mL
- IL6 (PBMC of patient CCC I 456): 46 pg/mL
- TNFα (PBMC of patient CCC I 456): 6 pg/mL
- IFNγ (PBMC of patient CCC I 770): -2 pg/mL
- IL6 (PBMC of patient CCC I 770): 3 pg/mL
- TNFα (PBMC of patient CCC I 770): -11 pg/mL
- IFNγ (PBMC of patient CCC I 861): 0 pg/mL
- IL6 (PBMC of patient CCC I 861): -4 pg/mL
- TNFα (PBMC of patient CCC I 861): -3 pg/mL
- IFNγ (PBMC of patient CCC I 884): 0 pg/mL
- IL6 (PBMC of patient CCC I 884): 0 pg/mL
- TNFα (PBMC of patient CCC I 884): 0 pg/mL
- IFNγ (PBMC of patient CCC II 142): 2 pg/mL
- IL6 (PBMC of patient CCC II 142): -3 pg/mL
- TNFα (PBMC of patient CCC II 142): -20 pg/mL
- IFNγ (PBMC of patient CCC III 509): 0 pg/mL
- IL6 (PBMC of patient CCC III 509): -4 pg/mL
- TNFα (PBMC of patient CCC III 509): -5 pg/mL
- IFNγ (PBMC of patient CCC III 797): 3 pg/mL
- IL6 (PBMC of patient CCC III 797): 31 pg/mL
- TNFα (PBMC of patient CCC III 797): 7 pg/mL
- IFNγ (PBMC of patient IND 265): 204 pg/mL
- IL6 (PBMC of patient IND 265): 1641 pg/mL
- TNFα (PBMC of patient IND 265): 160 pg/mL
- IFNγ (PBMC of patient IND 283): 12 pg/mL
- IL6 (PBMC of patient IND 283): 80 pg/mL
- TNFα (PBMC of patient IND 283): 35 pg/mL
- IFNγ (PBMC of patient IND 365): 0 pg/mL
- IL6 (PBMC of patient IND 365): 7 pg/mL
- TNFα (PBMC of patient IND 365): 15 pg/mL
- IFNγ (PBMC of patient IND 388): 1 pg/mL
- IL6 (PBMC of patient IND 388): 21 pg/mL
- TNFα (PBMC of patient IND 388): -10 pg/mL
- IFNγ (PBMC of patient IND 510): 0 pg/mL
- IL6 (PBMC of patient IND 510): 1 pg/mL
- TNFα (PBMC of patient IND 510): 1 pg/mL
- IFNγ (PBMC of patient IND 535): 0 pg/mL
- IL6 (PBMC of patient IND 535): -6 pg/mL
- TNFα (PBMC of patient IND 535): -1 pg/mL
- IFNγ (PBMC of patient IND 917): -1 pg/mL
- IL6 (PBMC of patient IND 917): -13 pg/mL
- TNFα (PBMC of patient IND 917): -4 pg/mL
- IFNγ (PBMC of subject HD 001): 4 pg/mL
- IL6 (PBMC of subject HD 001): 18 pg/mL
- TNFα (PBMC of subject HD 001): -6 pg/mL
- IFNγ (PBMC of subject HD 004): 0 pg/mL
- IL6 (PBMC of subject HD 004): -15 pg/mL
- TNFα (PBMC of subject HD 004): -1 pg/mL
- IFNγ (PBMC of subject HD 005): 5 pg/mL
- IL6 (PBMC of subject HD 005): 16 pg/mL
- TNFα (PBMC of subject HD 005): -1 pg/mL
- IFNγ (PBMC of subject HD 006): 2 pg/mL
- IL6 (PBMC of subject HD 006): -2 pg/mL
- TNFα (PBMC of subject HD 006): 2 pg/mL
- IFNγ (PBMC of subject HD 008): 1 pg/mL
- IL6 (PBMC of subject HD 008): 31 pg/mL
- TNFα (PBMC of subject HD 008): 15 pg/mL
- IFNγ (PBMC of subject HD 011): 8 pg/mL
- IL6 (PBMC of subject HD 011): 54 pg/mL
- TNFα (PBMC of subject HD 011): 10 pg/mL
- IFNγ (PBMC of subject HD 340): 2 pg/mL
- IL6 (PBMC of subject HD 340): 11 pg/mL
- TNFα (PBMC of subject HD 340): 3 pg/mL
- IFNγ (PBMC of subject HD 664): -3 pg/mL
- IL6 (PBMC of subject HD 664): 0 pg/mL
- TNFα (PBMC of subject HD 664): 0 pg/mL
